# Paper PMC12441861, “Next-Generation Lipid Prodrugs Orally Deliver Tenofovir via Enhanced Chylomicron Incorporation” (ACS Pharmacology & Translational Science, 2025)
# Like-named read-outs stand apart in the source and are kept apart here.
# Key:
# [1] = Metabolic stability in human liver microsomes; format: in vitro ADME; conditions: pH 7.4, read-out: Metabolic Stability HLM t1/2
# Experimental: Assays employed human liver microsomes (HLMs, 20 mg/mL) from Xenotech. A 10 mM NADPH stock was prepared in deionized H2O, and test compounds were dissolved in 100% MeOH to a final concentration of 10 mM. The stock solutions were diluted to 500 μM in 100 mM potassium phosphate buffer (pH 7.4), keeping the final MeOH concentration below 0.2%. Reaction mixtures were prepared by combining 928 μL phosphate buffer, 55 μL liver microsomes, and the test compound solution to a final concentration of 3 μM. Verapamil was used as a positive control. The reactions were initiated with the addition of 110 μL of 10 mM NADPH. Aliquots were taken in duplicate at 0, 5, 10, 15, and 30 min, quenched with 100 μL of cold MeOH containing 2 μM internal standard (d 5-7-ethoxy coumarin), and centrifuged at 12,000 RCF for 5 min. The supernatants were then transferred to LC-MS vials for analysis. The average of each duplicate was normalized to the 0 min time point, representing 100% remaining (0% metabolism).
# Cytotoxicity, MTT assay = conditions: human, TZM-bl cells
# Experimental: To measure cytotoxicity, HeLa-derived TZM-bl cells , were treated with serial dilutions of each drug, and viability was assessed after 48 h. Two methods were used: an ATP luminescence assay, which measures cellular ATP levels as an indicator of metabolic activity (compounds 8a–d), and an MTT assay, which evaluates cell viability via mitochondrial enzymatic activity (compounds 15b, 21a, and 21b).
# The TZM-bl cell line (BEI Resources, ARP-8129) was used to evaluate both cell viability and HIV pseudovirus infectivity reduction. Cytotoxicity in this cell line was measured via two methods. The first method, an ATP luminescence assay, was used for compounds 15a, 15b, 21a, and 21b as such: 6000 TZM-bl cells per well were seeded in a 96-well plate and incubated at 37 °C with 5% CO2 for 24 h. Compounds were prepared as serial dilutions (final concentrations of 1, 0.2, 0.04, 0.008, and 0.0016 μM) in complete DMEM with DEAE-Dextran at 40 μg/mL to mimic HIV infectivity conditions. Solutions were added to the cells and incubated for another 48 h. Viability was assessed using the Promega Cell Titer Glow (CTG) Assay (cat No. G9242) by adding a 50% PBS-CTG solution to each well and measuring luminescence, which correlates with ATP levels, on an Agilent BioTek Synergy HT reader. Cytotoxicity of compounds 8a–d was determined using a colorimetric assay based the conversion of MTT (3-(4,5-dimethylthiazol-2-yl)-2,5-diphenyltetrazolium bromide) to formazan as described previously. TZM-bl cells were plated into 96-well tissue culture plates 1 day prior to performing the MTT assay. A series of 10 3-fold dilutions of each compound was performed from a starting concentration of 10 mM and each dilution was tested for a reduction in cell viability according to the manufacturer’s instructions (CyQuant MTT Cell Viability Assay, ThermoFisher, V13154). Wells containing TZM-bl cells with media only were used as a control. Briefly, serial dilutions of each test compound were added to the plated TZM-bl cells. At 48 h, the media was removed and replaced with 100 mL of fresh culture medium. 10 mL of 12 mM MTT solution was added to each well and incubated at 37 °C for 4 h. 85 mL of supernatant was then removed from each well and replaced with 50 mL of DMSO. Following a 10 min incubation at 37 °C, the absorbance of each well was determined at 540 nm using a Biotek Synergy Neo2 multimode reader and Gen5 v3.02 software.
# [2] = cited from earlier work
# [3] = cited from earlier work; remark: listed apart in the source
# Caco-2 cell-derived CMs = format: in vitro ADME, human; conditions: 10 μM test drug, Caco-2 cells
# Experimental: [formula] 1 Chylomicron (CM) Isolation and Drug Quantification Methods ^a a (1) Caco-2 cells were grown to confluence. (2) Lipid mix was added to media (final drug concentration of 10 μM), and cells were incubated for 4 h. (3) Cells were washed 3× with PBS. (4) Cells were incubated in fresh media overnight. (5) CM-containing media was collected. (6) Media was combined with a 1.20 g/mL NaCl solution in an ultracentrifugation tube, 500 μL H2O was carefully layered on top, and the mixture was centrifuged at 10,950 RCF for 3 h. (7) The CM-containing upper layer was carefully isolated with a fine-tip pipette. (8) Test drug was then extracted from the CM layer with 70% ACN and quantified using LC-MS/MS.
# With the presence of CMs in isolated Caco-2 cell extracts confirmed and reproducibility validated across replicates and different drugs, we were eager to investigate drug incorporation during CM biogenesis in vitro. Accordingly, we added test compound (Figure ) to differentiated Caco-2 cells along with the lipid mix to a final test drug concentration of 10 μM. While 10 μM was selected as a standard concentration for these studies, higher concentrations could allow detection of other compounds with low CM association in future experiments. In either case, CMs secreted by Caco-2 cells can be isolated postincubation, and drug concentrations within CMs can be assessed using highly sensitive LC-MS/MS methodology. Positive (high c Log D) and negative (low c Log D) control compounds were selected to validate this assay. […] Given these properties, we expected CAB to readily package into CMs in vitro. […]. […] This sets the stage for quantitative comparisons of TXL and its functionalized analogs, which are detailed below.
# At 14-days postconfluence, Caco-2 cells were incubated in a lipid mixture to induce secretion of CMs. For the lipid solution, oleic acid (50 mg), lecithin (40 mg), and sodium taurocholate (48 mg) were weighted out into an Eppendorf tube, and the volume was brought up to 900 μL with PBS, followed by vigorous vortexing to ensure sample homogeneity. This 100× lipid mixture was then diluted into growth media to achieve the desired concentrations (2 mM oleic acid, 1.36 mM lecithin, 1 mM sodium taurocholate) by adding 500 μL of the lipid mixture to 49.5 mL of media. The lipid-supplemented media was thoroughly mixed and sterilized by filtration using a 250 mL sterile vacuum filter. For the drug-exposed CM experiments, each test compound was dissolved in 2 mM human serum albumin (HAS, Sigma, essentially fatty acid free) in DPBS, then added to 10 mL aliquots of lipid-containing media to achieve a final concentration of 10 μM. Subsequently, lipid-containing media was added to Caco-2 cells and incubated for 4 h at 37 °C. After incubation, cells were washed twice with PBS then incubated for 4, 8, or 20 h at 37 °C in fresh, colorless growth medium. Media was collected into 15 mL falcon tubes and centrifuged at 2000g to remove cell debris. Postcentrifugation, the supernatant was transferred to 50 mL Nalgene Oak Ridge High-Speed PPCO Centrifuge Tubes. Next, to adjust the density for ultracentrifugation, 1.19 g of NaCl in 2 mL of deionized (DI) H2O were added to reach a final volume of 5 mL, corresponding to a density of 1.20 g/mL. This mixture was dissolved by vortexing and balanced by weight. 500 μL of DI H2O was carefully overlaid onto the mixture. Ultracentrifugation was performed for 2 h and 30 min at 10,920 relative centrifugal force (RCF). Immediately after centrifugation, the top 500 μL layer, containing CMs, was carefully collected using a gel-loading pipet tip.
# To an aliquot of CM extract was added an equal volume of ACN into 1.5 mL Eppendorf tubes. Tubes were shaken for 1 h at rt then centrifuged at 15,000 RCF to remove debris. The clear supernatant was transferred to a glass vial and concentrated under reduced pressure to yield a dry solid. Sample was then reconstituted in 70% ACN in H2O, filtered and then analyzed. […]
compound,measurement,setting,value
"CCCCCCCCCCCCCCCCOC[C@@H](COP(=O)(O)CO[C@H](C)Cn1cnc2c(N)ncnc21)OCc1ccccc1 [8a, Ammonium[(1R)-2-(6-aminopurin-9-yl)-1-methyl-ethoxy]methyl-[(2S)-2-benzyloxy-3-hexadecoxy-propoxy]phosphinate]",half-life at 3 µM,[1],> 2 h
same,CC50 at 48 h,"Cytotoxicity, MTT assay",> 10 µM
"CCCCCCCCCCCCCCCCCCOC[C@@H](COP(=O)(O)CO[C@H](C)Cn1cnc2c(N)ncnc21)OCc1ccccc1 [8b, Ammonium[(1R)-2-(6-aminopurin-9-yl)-1-methyl-ethoxy]methyl-[(2S)-2-benzyloxy-3-octadecoxy-propoxy]phosphinate]",half-life at 3 µM,[1],> 2 h
same,CC50 at 48 h,"Cytotoxicity, MTT assay",> 10 µM
"CCCCCCCCCCCCCCCCOC[C@H](COP(=O)(O)CO[C@H](C)Cn1cnc2c(N)ncnc21)OCc1ccccc1 [8c, Ammonium[(1R)-2-(6-aminopurin-9-yl)-1-methyl-ethoxy]methyl-[(2R)-2-benzyloxy-3-hexadecoxy-propoxy]phosphinate]",half-life at 3 µM,[1],> 2 h
same,CC50 at 48 h,"Cytotoxicity, MTT assay",> 10 µM
CCCCCCCCCCCCCCCC(=O)OCC(COC(=O)CCCCCCCCCCCCCCC)OC(=O)CC(C)CC(=O)Oc1cc(C)cc(C)c1C(C)(C)CC(=O)Oc1ccc2c3c1O[C@H]1[C@@]4(OC)CC[C@@]5(C[C@@H]4[C@](C)(O)C(C)(C)C)[C@@H](C2)N(CC2CC2)CC[C@]315 (stereo partly shown) [BUP-TML-C5βMe-TG],Δ Oral Availability (% versus Parent),"[2]; parent Buprenorphine, ref Quach 2022",83%
same,oral dose recovered in mesenteric lymph,"[3]; within 6 h, ref Quach 2022",44.7% oral dose recovered in mesenteric lymph within 6 h
"CO[C@H]1C(=O)[C@]2(C)[C@@H](OC)C[C@H]3OC[C@@]3(OC(C)=O)[C@H]2[C@H](OC(=O)c2ccccc2)[C@]2(O)C[C@H](OC(=O)[C@H](O)[C@@H](NC(=O)OC(C)(C)C)c3ccccc3)C(C)=C1C2(C)C [CAB, Cabazitaxel, reference compound]",detection of compound in CM extract by LC-MS/MS,Caco-2 cell-derived CMs,presence
CCCCCCCCCCCCCCCCCCCC(=O)OCC(COP(=O)([O-])OCC[N+](C)(C)C)OC(=O)C(CCC)CCC (stereo not shown) [DP-VPA],Δ Oral Availability (% versus Parent),"[2]; parent Valproic Acid, ref Dahan 2008",9%
same,orally-dosed drug recovered in mesenteric lymph,[3]; ref Dahan 2008,60% orally-dosed drug recovered in mesenteric lymph
CCCCCCCCCCCCCCCC(=O)OCC(COC(=O)CCCCCCCCCCCCCCC)OC(=O)CCCSSCCCC(=O)O[C@@H](C(=O)O[C@H]1C[C@@]2(O)[C@@H](OC(=O)c3ccccc3)[C@@H]3[C@]4(OC(C)=O)CO[C@@H]4C[C@H](O)[C@@]3(C)C(=O)[C@H](O)C(=C1C)C2(C)C)[C@@H](NC(=O)OC(C)(C)C)c1ccccc1 [DTX-S-S-TG],Δ Oral Availability (% versus Parent),"[2]; parent Docetaxel, ref Tian 2019",44%
same,Evidence of Lymphatic Uptake,[3]; ref Tian 2019,Cycloheximide inhibition reduces lymphatic transport and prodrug bioavailability
"CN(C)C(=N)N=C(N)N [MET, metformin, reference compound]",detection of compound in CM extract by LC-MS/MS,Caco-2 cell-derived CMs,absence
"CCCCCCCCCCC(=O)O[C@H]1CC[C@H]2[C@@H]3CCC4=CC(=O)CC[C@]4(C)[C@H]3CC[C@]12C [Testosterone Undecanoate (TU), Testosterone Undecanoate]",Δ Oral Availability (% versus Parent),"[2]; parent Testosterone, ref Shackleford 2003",7%
same,lymphatic transport as share of systemic availability,"[3]; oral administration, ref not printed in text (Table 1: Shackleford 2003)",91.5–99.7%
CCCCCCCCCCCCCCCC(=O)OCC(COC(=O)CCCCCCCCCCCCCCC)OC(=O)CC(C)CC(=O)OCOC1CCC2C3CCC4=CC(=O)CCC4(C)C3CCC12C (stereo not shown) [Testosterone-ASI-C5-βMe-TG],Δ Oral Availability (% versus Parent),"[2]; parent Testosterone, ref Hu 2016",90%
same,orally-dosed drug recovered in mesenteric lymph,[3]; ref Hu 2016,28% orally-dosed drug recovered in mesenteric lymph (0% for parent)
C[C@]12CC[C@H]3[C@@H](CCC4=CC(=O)CC[C@@]43C)[C@@H]1CC[C@@H]2O [Testosterone],orally-dosed drug recovered in mesenteric lymph,"[3]; in vivo, po",28% orally-dosed drug recovered in mesenteric lymph (0% for parent)
